In patent US11498899B2, “Nitrone herbicides” (FMC Corporation, priority 2016, dated 2022):

Columns and labels:
rice (Oryza sativa) = assay: Test B flooded paddy test, visual rating 0-100 (0 no effect, 100 complete control); conditions: Flood, 250 g ai/ha, applied to paddy water, rated after 13 to 15 days
[1] = test system: barnyardgrass (Echinochloa crus-galli); assay: Test B flooded paddy test, visual rating 0-100; conditions: Flood, 250 g ai/ha, applied to paddy water, rated after 13 to 15 days
[2] = test system: barnyardgrass (Echinochloa crus-galli); assay: Test A preemergence, visual injury rating 0-100 (0 no effect, 100 complete control); assay type: in vivo; conditions: for Barnyardgrass plant response rating (0 to 100 scale): 125 g ai/ha; for Barnyardgrass plant response rating: 500 g ai/ha, 0 to 100 scale
[3] = test system: ragweed (common ragweed, Ambrosia elatior); assay: Test A preemergence, visual injury rating 0-100; assay type: in vivo; conditions: for Ragweed plant response rating (0 to 100 scale): 125 g ai/ha; for Ragweed plant response rating: 500 g ai/ha, 0 to 100 scale
[4] = test system: ryegrass, Italian (Italian ryegrass, Lolium multiflorum); assay: Test A preemergence, visual injury rating 0-100; assay type: in vivo; conditions: for Ryegrass, Italian plant response rating (0 to 100 scale): 125 g ai/ha; for Ryegrass, Italian plant response rating: 500 g ai/ha, 0 to 100 scale
[5] = test system: pigweed (Amaranthus retroflexus); assay: Test A preemergence, visual injury rating 0-100; assay type: in vivo; conditions: for Pigweed plant response rating (0 to 100 scale): 125 g ai/ha; for Pigweed plant response rating: 500 g ai/ha, 0 to 100 scale
[6] = test system: foxtail, green (green foxtail, Setaria viridis); assay: Test A preemergence, visual injury rating 0-100; assay type: in vivo; conditions: for Foxtail, Green plant response rating (0 to 100 scale): 125 g ai/ha; for Foxtail, Green plant response rating: 500 g ai/ha, 0 to 100 scale
kochia (Kochia scoparia) [7] = assay: Test A preemergence, visual injury rating 0-100; assay type: in vivo; conditions: for Kochia plant response rating (0 to 100 scale): 125 g ai/ha; for Kochia plant response rating: 500 g ai/ha, 0 to 100 scale
[8] = test system: blackgrass (Alopecurus myosuroides); assay: Test A postemergence, visual injury rating 0-100; assay type: in vivo; conditions: 0 to 100 scale
[9] = test system: galium (catchweed bedstraw, Galium aparine); assay: Test A postemergence, visual injury rating 0-100; assay type: in vivo; conditions: 0 to 100 scale
corn (Zea mays) = assay: Test A postemergence, visual injury rating 0-100; assay type: in vivo; conditions: 0 to 100 scale
[10] = test system: ragweed (common ragweed, Ambrosia elatior); assay: Test A postemergence, visual injury rating 0-100; assay type: in vivo; conditions: 0 to 100 scale
[11] = test system: ryegrass, Italian (Italian ryegrass, Lolium multiflorum); assay: Test A postemergence, visual injury rating 0-100; assay type: in vivo; conditions: 0 to 100 scale
[12] = test system: barnyardgrass (Echinochloa crus-galli); assay: Test A postemergence, visual injury rating 0-100; assay type: in vivo; conditions: 0 to 100 scale
[13] = test system: pigweed (Amaranthus retroflexus); assay: Test A postemergence, visual injury rating 0-100; assay type: in vivo; conditions: 0 to 100 scale
[14] = test system: foxtail, green (green foxtail, Setaria viridis); assay: Test A postemergence, visual injury rating 0-100; assay type: in vivo; conditions: 0 to 100 scale
[15] = test system: wheat (Triticum aestivum); assay: Test A postemergence, visual injury rating 0-100; assay type: in vivo; conditions: 0 to 100 scale
kochia (Kochia scoparia) [16] = assay: Test A postemergence, visual injury rating 0-100; assay type: in vivo; conditions: 0 to 100 scale
[17] = test system: ducksalad (Heteranthera limosa); assay: Test B flooded paddy test, visual rating 0-100; conditions: Flood, 250 g ai/ha, applied to paddy water, rated after 13 to 15 days

CC1=[N+]([O-])C(C(=O)Nc2cccc(F)c2F)C(c2ccccc2)C1 (racemic) [Compound 16]
Rice plant response rating (0 to 100 scale) (rice (Oryza sativa)): 0 | Barnyardgrass plant response rating (0 to 100 scale) [1]: 85 | Barnyardgrass plant response rating (0 to 100 scale) [2]: 100 | Barnyardgrass plant response rating [2]: 100 | Ragweed plant response rating (0 to 100 scale) [3]: 0 | Ragweed plant response rating [3]: 20 | Ryegrass, Italian plant response rating (0 to 100 scale) [4]: 0 | Ryegrass, Italian plant response rating [4]: 0 | Pigweed plant response rating (0 to 100 scale) [5]: 0 | Pigweed plant response rating [5]: 70 | Foxtail, Green plant response rating (0 to 100 scale) [6]: 100 | Foxtail, Green plant response rating [6]: 100 | Kochia plant response rating (0 to 100 scale) (kochia (Kochia scoparia) [7]): 0 | Kochia plant response rating (kochia (Kochia scoparia) [7]): 30 | Blackgrass plant response rating ([8]; 125 g ai/ha): 0 | Blackgrass plant response rating ([8]; 500 g ai/ha): 0 | Galium plant response rating ([9]; 125 g ai/ha): 0 | Galium plant response rating ([9]; 500 g ai/ha): 30 | Corn plant response rating (corn (Zea mays); 125 g ai/ha): 0 | Corn plant response rating (corn (Zea mays); 500 g ai/ha): 0 | Ragweed plant response rating ([10]; 125 g ai/ha): 0 | Ragweed plant response rating ([10]; 500 g ai/ha): 20 | Ryegrass, Italian plant response rating ([11]; 125 g ai/ha): 0 | Ryegrass, Italian plant response rating ([11]; 500 g ai/ha): 0 | Barnyardgrass plant response rating ([12]; 125 g ai/ha): 80 | Barnyardgrass plant response rating ([12]; 500 g ai/ha): 90 | Pigweed plant response rating ([13]; 125 g ai/ha): 0 | Pigweed plant response rating ([13]; 500 g ai/ha): 20 | Foxtail, Green plant response rating ([14]; 125 g ai/ha): 10 | Foxtail, Green plant response rating ([14]; 500 g ai/ha): 80 | Wheat plant response rating ([15]; 125 g ai/ha): 0 | Wheat plant response rating ([15]; 500 g ai/ha): 0 | Kochia plant response rating (kochia (Kochia scoparia) [16]; 125 g ai/ha): 0 | Kochia plant response rating (kochia (Kochia scoparia) [16]; 500 g ai/ha): 20 | Ducksalad plant response rating (0 to 100 scale) [17]: 100

CC1=[N+]([O-])C(C(=O)Nc2ccccc2)C(c2ccc(F)c(F)c2)C1 (racemic) [Compound 17]
Rice plant response rating (0 to 100 scale) (rice (Oryza sativa)): 0 | Barnyardgrass plant response rating (0 to 100 scale) [1]: 0 | Barnyardgrass plant response rating (0 to 100 scale) [2]: 0 | Barnyardgrass plant response rating [2]: 20 | Ragweed plant response rating (0 to 100 scale) [3]: 0 | Ragweed plant response rating [3]: 0 | Ryegrass, Italian plant response rating (0 to 100 scale) [4]: 0 | Ryegrass, Italian plant response rating [4]: 0 | Pigweed plant response rating (0 to 100 scale) [5]: 0 | Pigweed plant response rating [5]: 0 | Foxtail, Green plant response rating (0 to 100 scale) [6]: 0 | Foxtail, Green plant response rating [6]: 50 | Kochia plant response rating (0 to 100 scale) (kochia (Kochia scoparia) [7]): 0 | Kochia plant response rating (kochia (Kochia scoparia) [7]): 0 | Blackgrass plant response rating ([8]; 125 g ai/ha): 0 | Blackgrass plant response rating ([8]; 500 g ai/ha): 0 | Galium plant response rating ([9]; 125 g ai/ha): 0 | Galium plant response rating ([9]; 500 g ai/ha): 0 | Corn plant response rating (corn (Zea mays); 125 g ai/ha): 0 | Corn plant response rating (corn (Zea mays); 500 g ai/ha): 20 | Ragweed plant response rating ([10]; 125 g ai/ha): 0 | Ragweed plant response rating ([10]; 500 g ai/ha): 0 | Ryegrass, Italian plant response rating ([11]; 125 g ai/ha): 0 | Ryegrass, Italian plant response rating ([11]; 500 g ai/ha): 0 | Barnyardgrass plant response rating ([12]; 125 g ai/ha): 0 | Barnyardgrass plant response rating ([12]; 500 g ai/ha): 0 | Pigweed plant response rating ([13]; 125 g ai/ha): 0 | Pigweed plant response rating ([13]; 500 g ai/ha): 0 | Foxtail, Green plant response rating ([14]; 125 g ai/ha): 20 | Foxtail, Green plant response rating ([14]; 500 g ai/ha): 20 | Wheat plant response rating ([15]; 125 g ai/ha): 0 | Wheat plant response rating ([15]; 500 g ai/ha): 0 | Kochia plant response rating (kochia (Kochia scoparia) [16]; 125 g ai/ha): 0 | Kochia plant response rating (kochia (Kochia scoparia) [16]; 500 g ai/ha): 0 | Ducksalad plant response rating (0 to 100 scale) [17]: 40

CC1=[N+]([O-])C(C(=O)Nc2cccc(F)c2F)C(c2cccc(Br)c2)C1 (racemic) [Compound 19]
Rice plant response rating (0 to 100 scale) (rice (Oryza sativa)): 15 | Barnyardgrass plant response rating (0 to 100 scale) [1]: 85 | Barnyardgrass plant response rating (0 to 100 scale) [2]: 70 | Barnyardgrass plant response rating [2]: 90 | Ragweed plant response rating (0 to 100 scale) [3]: 20 | Ragweed plant response rating [3]: 50 | Ryegrass, Italian plant response rating (0 to 100 scale) [4]: 0 | Ryegrass, Italian plant response rating [4]: 40 | Pigweed plant response rating (0 to 100 scale) [5]: 20 | Pigweed plant response rating [5]: 60 | Foxtail, Green plant response rating (0 to 100 scale) [6]: 50 | Foxtail, Green plant response rating [6]: 90 | Kochia plant response rating (0 to 100 scale) (kochia (Kochia scoparia) [7]): 0 | Kochia plant response rating (kochia (Kochia scoparia) [7]): 60 | Blackgrass plant response rating ([8]; 125 g ai/ha): 20 | Blackgrass plant response rating ([8]; 500 g ai/ha): 60 | Galium plant response rating ([9]; 125 g ai/ha): 0 | Galium plant response rating ([9]; 500 g ai/ha): 30 | Corn plant response rating (corn (Zea mays); 125 g ai/ha): 30 | Corn plant response rating (corn (Zea mays); 500 g ai/ha): 80 | Ragweed plant response rating ([10]; 125 g ai/ha): 0 | Ragweed plant response rating ([10]; 500 g ai/ha): 20 | Ryegrass, Italian plant response rating ([11]; 125 g ai/ha): 0 | Ryegrass, Italian plant response rating ([11]; 500 g ai/ha): 40 | Barnyardgrass plant response rating ([12]; 125 g ai/ha): 10 | Barnyardgrass plant response rating ([12]; 500 g ai/ha): 90 | Pigweed plant response rating ([13]; 125 g ai/ha): 0 | Pigweed plant response rating ([13]; 500 g ai/ha): 20 | Foxtail, Green plant response rating ([14]; 125 g ai/ha): 30 | Foxtail, Green plant response rating ([14]; 500 g ai/ha): 60 | Wheat plant response rating ([15]; 125 g ai/ha): 0 | Wheat plant response rating ([15]; 500 g ai/ha): 70 | Kochia plant response rating (kochia (Kochia scoparia) [16]; 125 g ai/ha): 0 | Kochia plant response rating (kochia (Kochia scoparia) [16]; 500 g ai/ha): 30 | Ducksalad plant response rating (0 to 100 scale) [17]: 95

CC1=[N+]([O-])C(C(=O)Nc2cccc(F)c2F)C(c2ccc(Br)cc2)C1 (racemic) [Compound 20]
Rice plant response rating (0 to 100 scale) (rice (Oryza sativa)): 0 | Barnyardgrass plant response rating (0 to 100 scale) [1]: 95 | Barnyardgrass plant response rating (0 to 100 scale) [2]: 60 | Barnyardgrass plant response rating [2]: 90 | Ragweed plant response rating (0 to 100 scale) [3]: 20 | Ragweed plant response rating [3]: 60 | Ryegrass, Italian plant response rating (0 to 100 scale) [4]: 0 | Ryegrass, Italian plant response rating [4]: 20 | Pigweed plant response rating (0 to 100 scale) [5]: 60 | Pigweed plant response rating [5]: 80 | Foxtail, Green plant response rating (0 to 100 scale) [6]: 60 | Foxtail, Green plant response rating [6]: 90 | Kochia plant response rating (0 to 100 scale) (kochia (Kochia scoparia) [7]): 0 | Kochia plant response rating (kochia (Kochia scoparia) [7]): 50 | Blackgrass plant response rating ([8]; 125 g ai/ha): 0 | Blackgrass plant response rating ([8]; 500 g ai/ha): 30 | Galium plant response rating ([9]; 125 g ai/ha): 30 | Galium plant response rating ([9]; 500 g ai/ha): 40 | Corn plant response rating (corn (Zea mays); 125 g ai/ha): 0 | Corn plant response rating (corn (Zea mays); 500 g ai/ha): 0 | Ragweed plant response rating ([10]; 125 g ai/ha): 0 | Ragweed plant response rating ([10]; 500 g ai/ha): 30 | Ryegrass, Italian plant response rating ([11]; 125 g ai/ha): 0 | Ryegrass, Italian plant response rating ([11]; 500 g ai/ha): 30 | Barnyardgrass plant response rating ([12]; 125 g ai/ha): 10 | Barnyardgrass plant response rating ([12]; 500 g ai/ha): 50 | Pigweed plant response rating ([13]; 125 g ai/ha): 0 | Pigweed plant response rating ([13]; 500 g ai/ha): 40 | Foxtail, Green plant response rating ([14]; 125 g ai/ha): 0 | Foxtail, Green plant response rating ([14]; 500 g ai/ha): 60 | Wheat plant response rating ([15]; 125 g ai/ha): 0 | Wheat plant response rating ([15]; 500 g ai/ha): 30 | Kochia plant response rating (kochia (Kochia scoparia) [16]; 125 g ai/ha): 0 | Kochia plant response rating (kochia (Kochia scoparia) [16]; 500 g ai/ha): 30 | Ducksalad plant response rating (0 to 100 scale) [17]: 100
